The values below come from US10662159B2, “ABHD6 and dual ABHD6/MGL inhibitors and their uses” (MAKScientific, LLC, priority 2017, dated 2020).

The term IC50 denotes the point on the concentration scale where inhibition reaches its midpoint.

Holding throughout (type): biochemical
In one assay the target is hFAAH (Homo sapiens (Human), UniProt O00519). The experiment in a line: Fluorescent assay for hFAAH. The conditions noted are these: MBP ΔTM hFAAH, procedure as for rFAAH; read-out: hFAAH Inhibition IC50. The procedure:
(§1) Certain compounds were tested for their ABHD6 and dual ABHD6/MGL inhibitory activity, which is expressed as % of inhibition or IC50 values in Table 1. The percentage of inhibition describes the percentage by which the inhibitor reduces the velocity/rate of 2-AG hydrolysis by ABHD6, and MGL or AEA hydrolysis by FAAH. The IC50 is the concentration of the inhibitor, which results in 50% inhibition of the velocity/rate of 2-AG hydrolysis by ABHD6 or MGL. The IC50 is the concentration of the inhibitor, which results in 50% inhibition of the velocity/rate of AEA hydrolysis by FAAH. The lower the IC50 values, the higher its inhibitory activity. A detailed description of the methods used to test inhibitory activity of compounds is given below.
Example 80. Preparation of Human FAAH in Fusion with N-Terminal Maltose Binding Tag (MBP ΔTM hFAAH)
Human FAAH without putative transmembrane domain following maltose binding protein was expressed in E. coli cells using pMALcE4 vector Alapafuja et al J. Med. Chem. (2012) 55: 10074-89.
(§2) The fluorescence reading at the 3 hour time point (linear enzyme kinetics) was used to calculate percent inhibition based on control assays without inhibitor present. All FAAH assays were performed in triplicate for each inhibitor concentration, and IC50 values determined using Prizm software (GraphPad Software, Inc.).
Example 82. Fluorescent Assay Protocol for hFAAH
Procedure was followed as described for rFAAH.

The target of a further assay is hMGL (Homo sapiens (Human), UniProt Q99685). The experiment in a line: Fluorescent assay for hMGL (AHMMCE substrate hydrolysis). The conditions noted are these: E. coli lysate containing hMGL, read-out: hMGL Inhibition IC50. As for the experimental part: (§3) Certain compounds were tested for their ABHD6 and dual ABHD6/MGL inhibitory activity, which is expressed as % of inhibition or IC50 values in Table 1. The percentage of inhibition describes the percentage by which the inhibitor reduces the velocity/rate of 2-AG hydrolysis by ABHD6, and MGL or AEA hydrolysis by FAAH. […] The lower the IC50 values, the higher its inhibitory activity. A detailed description of the methods used to test inhibitory activity of compounds is given below.
Sequence of hMGL (Q99685 whole entry): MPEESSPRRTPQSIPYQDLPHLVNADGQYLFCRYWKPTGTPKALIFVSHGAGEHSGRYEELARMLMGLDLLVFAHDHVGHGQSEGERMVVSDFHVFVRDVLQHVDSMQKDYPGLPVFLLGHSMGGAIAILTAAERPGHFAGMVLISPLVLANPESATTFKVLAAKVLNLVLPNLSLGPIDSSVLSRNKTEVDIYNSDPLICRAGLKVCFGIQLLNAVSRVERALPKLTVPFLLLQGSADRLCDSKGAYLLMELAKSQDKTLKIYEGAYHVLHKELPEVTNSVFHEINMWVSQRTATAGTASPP
Preparation of Human MAGL (hMAGL)
Fluorescent Assay Protocol for hMGL
This medium throughput assay involved a 96-well plate format in which hMGL activity was monitored by the hydrolysis of the substrate […] (AHMMCE) to form the fluorescent product, coumarin. […] Upon the addition of AHMMCE, the reaction was incubated at 25° C. for 120 min; fluorescence readings were taken every 15 min at 360 nm/460 nm (λexcitation/λemission) using a Synergy HT Plate Reader (Bio-Tek, Winooski, Vt.). […] External standards were used to convert relative fluorescence units to the amount of 4-methylcoumarin formed. All MGL assays were performed in triplicate for each inhibitor concentration, and IC50 values were calculated using Prizm software (GraphPad Software, Inc., San Diego, Calif.).

For the next assay, the target named is hABHD6 (Homo sapiens (Human), UniProt Q9BV23). Nature of the assay: Fluorescent assay for hABHD6 (AHMMCE substrate hydrolysis). The conditions noted are these: membrane fraction containing full-length hABHD6, 20 μM AHMMCE; read-out: ABHD6 Inhibition IC50. The procedure:
as §3
Fluorescent Assays Protocol for hABHD6
Initial Fluorescent Inhibition Assay (3-Point)—
In each well of a 96-well plate 8 μL of membrane fraction containing full-length hABHD6 (1 μg total protein) was mixed with 168 μL of assay buffer (50 mM Tris-HCl, pH 7.6), and 20 μL of diluted compound (diluted in a dilution buffer consisting of 50% DMSO/50% assay buffer v/v). Each plate was incubated at RT for 15 minutes before adding 4 μL of 1 mM AHMMCE substrate (final concentration of 20 μM AHMMCE and final volume of 200 μL). The reaction was allowed to proceed for 1 hr at RT before the fluorescence was read at λex 360 nm and λem 460 nm and the inhibition calculated. Each experiment can test 8 compounds at three concentrations (usually 10 μM, 1 μM, and 100 nM).
IC50 Determination Assay (8-Point)—
A more detailed assay with an extended range tests compounds over 8 concentrations depending on the pre-determined approximate IC50 value from the initial screen. […] The assay was conducted in 96 well plate with each well containing the same reaction mixture detailed above in the 3-point screen. The relative fluorescence is quantified into coumarin produced by using a standard curve of HMMC in triplicate on each plate. Results are normalized to the negative control wells and the IC50 is determined using a non-linear regression curve fit in Prism, version 5 (GraphPad, San Diego, Calif.).

In a further assay the target is Rat ΔTM FAAH (Rattus norvegicus (Rat), UniProt P97612). Nature of the assay: Fluorescent assay for rat ΔTM FAAH (AAMCA substrate). The following applies: ΔTM rFAAH, AAMCA 20 μM; read-out: rFAAH Inhibition IC50. As for the experimental part:
as §1
Example 79. Preparation of Transmembrane Domain-Deleted Rat FAAH (ΔTM rFAAH)
Rat ΔTM FAAH was expressed in E. coli cells and purified using the procedure disclosed by Patricelli et al. Biochemistry (1998) 37: 15177-15187.
Example 81. Fluorescent Assay Protocol for Rat ΔTM FAAH
as §2

Structures are written as SMILES.

Sequence of hFAAH (O00519 30-579): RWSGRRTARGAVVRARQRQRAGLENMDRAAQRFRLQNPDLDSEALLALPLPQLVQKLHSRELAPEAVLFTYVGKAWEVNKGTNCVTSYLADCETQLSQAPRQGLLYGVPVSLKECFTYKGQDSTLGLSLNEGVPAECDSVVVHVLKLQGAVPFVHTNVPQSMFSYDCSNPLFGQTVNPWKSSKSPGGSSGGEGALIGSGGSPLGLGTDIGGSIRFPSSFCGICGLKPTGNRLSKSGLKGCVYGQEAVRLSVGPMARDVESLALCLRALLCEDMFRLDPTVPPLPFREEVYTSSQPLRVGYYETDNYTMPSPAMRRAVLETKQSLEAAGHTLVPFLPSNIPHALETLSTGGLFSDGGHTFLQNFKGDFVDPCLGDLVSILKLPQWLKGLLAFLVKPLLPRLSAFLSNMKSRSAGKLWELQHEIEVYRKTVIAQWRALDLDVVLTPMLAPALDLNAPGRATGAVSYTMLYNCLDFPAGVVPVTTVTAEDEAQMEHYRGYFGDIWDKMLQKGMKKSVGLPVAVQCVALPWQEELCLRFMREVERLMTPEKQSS
Sequence of Rat ΔTM FAAH (P97612 30-579): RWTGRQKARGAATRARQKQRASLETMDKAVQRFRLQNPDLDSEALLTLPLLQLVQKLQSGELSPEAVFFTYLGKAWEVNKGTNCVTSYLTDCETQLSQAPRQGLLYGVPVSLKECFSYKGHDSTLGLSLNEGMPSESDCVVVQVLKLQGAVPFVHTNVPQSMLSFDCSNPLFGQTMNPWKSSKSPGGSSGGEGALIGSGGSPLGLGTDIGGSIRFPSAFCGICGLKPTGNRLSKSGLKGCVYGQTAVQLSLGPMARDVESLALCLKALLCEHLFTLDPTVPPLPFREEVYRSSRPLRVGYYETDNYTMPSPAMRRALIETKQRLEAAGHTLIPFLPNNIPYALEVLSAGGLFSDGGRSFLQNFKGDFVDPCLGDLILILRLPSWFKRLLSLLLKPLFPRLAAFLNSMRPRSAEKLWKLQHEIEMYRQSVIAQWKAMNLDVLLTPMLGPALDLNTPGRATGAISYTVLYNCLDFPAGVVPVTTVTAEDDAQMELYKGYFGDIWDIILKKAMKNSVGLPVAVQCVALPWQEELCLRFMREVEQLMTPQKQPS
Sequence of hABHD6 (Q9BV23 whole entry): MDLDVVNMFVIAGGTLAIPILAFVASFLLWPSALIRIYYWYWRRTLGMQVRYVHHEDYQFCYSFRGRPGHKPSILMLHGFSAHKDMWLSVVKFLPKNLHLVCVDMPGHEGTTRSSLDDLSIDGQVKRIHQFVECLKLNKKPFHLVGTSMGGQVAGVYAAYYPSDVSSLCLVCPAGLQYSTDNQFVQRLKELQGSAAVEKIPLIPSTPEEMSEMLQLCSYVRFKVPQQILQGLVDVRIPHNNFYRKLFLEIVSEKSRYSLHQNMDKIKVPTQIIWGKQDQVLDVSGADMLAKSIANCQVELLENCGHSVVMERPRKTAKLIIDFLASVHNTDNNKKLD

Take `O=C(OC(C(F)(F)F)C(F)(F)F)N1CCc2cc(Br)ccc2C1` [Example 17, 1,1,1,3,3,3-Hexafluoropropan-2-yl 6-bromo-3,4-dihydroisoquinoline-2(1H)-carboxylate]: the IC50 on hFAAH was greater than 1000 nM; at hMGL it was greater than 1000 nM; at hABHD6 it was 10 to 100 nM; on Rat ΔTM FAAH, greater than 1000 nM.
As to `O=C(OC(C(F)(F)F)C(F)(F)F)N1CCc2ccc(Br)cc2C1` [Example 18, 1,1,1,3,3,3-Hexafluoropropan-2-yl 7-bromo-3,4-dihydroisoquinoline-2(1H)-carboxylate], the IC50 at hFAAH is greater than 1000 nM; at hMGL, greater than 1000 nM; on hABHD6 it was 100 to 1000 nM; at Rat ΔTM FAAH, greater than 1000 nM.
As for `COc1cccc2c1CN(C(=O)OC(C(F)(F)F)C(F)(F)F)C2` [Example 19, 1,1,1,3,3,3-Hexafluoropropan-2-yl 4-methoxyisoindoline-2-carboxylate], the IC50 is greater than 1000 nM on hFAAH, greater than 1000 nM on hMGL, 10 to 100 nM on hABHD6 and greater than 1000 nM at Rat ΔTM FAAH.
Consider `CC1CN(C(=O)OC(C(F)(F)F)C(F)(F)F)Cc2ccccc21` (stereo not shown) [Example 20, 1,1,1,3,3,3-Hexafluoropropan-2-yl 4-methyl-3,4-dihydroisoquinoline-2(1H)-carboxylate], for which the IC50 is greater than 1000 nM at hFAAH, greater than 1000 nM at hMGL, 100 to 1000 nM at hABHD6 and greater than 1000 nM on Rat ΔTM FAAH.
In the case of `COc1cc2c(cc1OC)CN(C(=O)OC(C(F)(F)F)C(F)(F)F)C2` [Example 21, 1,1,1,3,3,3-Hexafluoropropan-2-yl 5,6-dimethoxyisoindoline-2-carboxylate], the IC50 on hFAAH is greater than 1000 nM; on hMGL it was greater than 1000 nM; on hABHD6, 10 to 100 nM; at Rat ΔTM FAAH, greater than 1000 nM.
For `O=C(OC(C(F)(F)F)C(F)(F)F)N1CCCc2ccccc2C1` [Example 24, 1,1,1,3,3,3-Hexafluoropropan-2-yl 1,3,4,5-tetrahydro-2H-benzo[c]azepine-2-carboxylate], the IC50 on hFAAH, at hMGL, at hABHD6 and at Rat ΔTM FAAH was greater than 1000 nM throughout.
As for `COc1ccc(-c2ccc3c(c2)CN(C(=O)OC(C(F)(F)F)C(F)(F)F)C3)cc1F` [Example 26, 1,1,1,3,3,3-Hexafluoropropan-2-yl 5-(3-fluoro-4-methoxyphenyl)isoindoline-2-carboxylate], the IC50 at hFAAH was greater than 1000 nM; on hMGL it was greater than 1000 nM; on hABHD6, 10 to 100 nM; at Rat ΔTM FAAH it was greater than 1000 nM.
Take `O=C(OC(C(F)(F)F)C(F)(F)F)N1CCc2cccc(-c3ccccc3)c2C1` [Example 27, 1,1,1,3,3,3-Hexafluoropropan-2-yl 8-phenyl-3,4-dihydroisoquinoline-2(1H)-carboxylate]: the IC50 on hFAAH, on hMGL, at hABHD6 and at Rat ΔTM FAAH was greater than 1000 nM throughout.
Consider `O=C(OC(C(F)(F)F)C(F)(F)F)N1Cc2ccc(OCC(F)F)cc2C1` [Example 45, 1,1,1,3,3,3-Hexafluoropropan-2-yl 5-(2,2-difluoroethoxy)isoindoline-2-carboxylate], for which the IC50 at hFAAH is greater than 1000 nM; at hMGL, 10 to 100 nM; at hABHD6 it was 10 to 100 nM; on Rat ΔTM FAAH, greater than 1000 nM.
`O=C(OC(C(F)(F)F)C(F)(F)F)N1CC2(CC(Oc3cccc(C(F)(F)F)c3)C2)C1` [Example 52, 1,1,1,3,3,3-Hexafluoropropan-2-yl 6-(3-(trifluoromethyl)phenoxy)-2-azaspiro [3.3]heptane-2-carboxylate]: the IC50 at hFAAH is greater than 1000 nM; on hMGL, 10 to 100 nM; on hABHD6 it was 10 to 100 nM; at Rat ΔTM FAAH it was greater than 1000 nM.
On to `O=C(OC(C(F)(F)F)C(F)(F)F)N1CC2(CC(Oc3cccc(F)c3)C2)C1` [Example 53, 1,1,1,3,3,3-Hexafluoropropan-2-yl-6-(3-fluorophenoxy)-2-azaspiro[3.3]heptane-2-carboxylate], for which the IC50 is greater than 1000 nM at hFAAH, 10 to 100 nM at hMGL, 10 to 100 nM on hABHD6 and greater than 1000 nM at Rat ΔTM FAAH.
As to `O=C(OC(C(F)(F)F)C(F)(F)F)N1CC2(CC(Oc3cncc(F)c3)C2)C1` [Example 60, 1,1,1,3,3,3-Hexafluoropropan-2-yl 6-((5-fluoropyridin-3-yl)oxy)-2-azaspiro[3.3]heptane-2-carboxylate], the IC50 at hFAAH was greater than 1000 nM; at hMGL it was greater than 1000 nM; at hABHD6, 10 to 100 nM; on Rat ΔTM FAAH it was greater than 1000 nM.
Turning to `CC1(C)C2C(=O)N(OC(=O)N3CC4(CC(Oc5cccc(C(F)(F)F)c5)C4)C3)C(=O)C21` (stereo not shown) [Example 63, 6,6-Dimethyl-2,4-dioxo-3-azabicyclo[3.1.0]hexan-3-yl 6-(3-(trifluoromethyl)phenoxy)-2-azaspiro[3.3]heptane-2-carboxylate], the IC50 on hFAAH was greater than 1000 nM; on hMGL, greater than 1000 nM; at hABHD6 it was 10 to 100 nM; on Rat ΔTM FAAH, greater than 1000 nM.
For `CC1(C)C2C(=O)N(OC(=O)N3CC4(CCC(Oc5cncc(F)c5)C4)C3)C(=O)C21` (stereo not shown) [Example 64, 6,6-Dimethyl-2,4-dioxo-3-azabicyclo[3.1.0]hexan-3-yl 6-((5-fluoropyridin-3-yl)oxy)-2-azaspiro[3.4]octane-2-carboxylate], the IC50 on hFAAH is greater than 1000 nM; on hMGL, greater than 1000 nM; on hABHD6, 10 to 100 nM; at Rat ΔTM FAAH it was greater than 1000 nM.
On to `O=C(OC(C(F)(F)F)C(F)(F)F)N1CC[C@]2(C1)C[C@@H](OC(c1ccc(F)cc1)c1ccc(F)cc1)C2` [Example 67, 1,1,1,3,3,3-Hexafluoropropan-2-yl (2r,4s)-2-(bis(4-fluorophenyl)methoxy)-6-azaspiro[3.4]octane-6-carboxylate], for which the IC50 is greater than 1000 nM on hFAAH, 10 to 100 nM on hMGL, 10 to 100 nM on hABHD6 and 10 to 100 nM on Rat ΔTM FAAH.
`O=C(OC(C(F)(F)F)C(F)(F)F)N1CC[C@]2(C1)C[C@H](OC(c1ccc(F)cc1)c1ccc(F)cc1)C2` [Example 68, 1,1,1,3,3,3-Hexafluoropropan-2-yl (2s,4r)-2-(bis(4-fluorophenyl)methoxy)-6-azaspiro[3.4]octane-6-carboxylate]: the IC50 on hFAAH was greater than 1000 nM; at hMGL it was 10 to 100 nM; at hABHD6, greater than 1000 nM; at Rat ΔTM FAAH, 10 to 100 nM.
